Legend:
MDR1 = MDR1 (Homo sapiens, UniProt P08183)
Description: (§1) The incubations were carried out in the presence of 4 mM ATP or AMP to distinguish between transporter-mediated uptake and passive diffusion into the vesicles. […] Afterwards, the reaction mixtures were pre-incubated for 15 min at 37 °C for MRP1 or at 32 °C for BCRP, MDR1 and MRP4, respectively. The transporter assay was initiated through the addition of 25 μL of pre-warmed 12 mM MgATP (or 12 mM AMP in assay buffer as a background control). The reactions were quenched through the addition of 200 μL of ice-cold washing buffer and immediate filtration via glass fiber filters mounted onto a 96-well plate (filter plate). The filters were washed (5 × 200 μL of ice-cold washing buffer) and dried, and the amount of probe substrate inside the filtered vesicles was determined using LSC. The experiments were conducted in triplicate.
(§2) Calculation of ATP-dependent transport and inhibition for vesicular transport inhibition
(§3) For all wells the amount of the translocated probe substrate was determined in counts per minute (cpm).
(§4) ATP-dependent transport (pmol/mg protein/min) is calculated for each concentration using the following
𝐴𝑐𝑐𝐴𝑇𝑃 ∙ 𝑉 ∙ 𝐶𝐶 𝐴𝑐𝑐𝐴𝑀𝑃 ∙𝑉 ∙𝐶𝐶
(§5) 𝐴𝑇𝑃 − 𝑑𝑒𝑝𝑒𝑛𝑑𝑒𝑛𝑡 𝑎𝑐𝑐𝑢𝑚𝑢𝑙𝑎𝑡𝑖𝑜𝑛 = ( 𝑇𝐶𝑃𝑀 𝑠𝑢𝑏) − ( 𝑇𝐶𝑃𝑀 𝑠𝑢𝑏)
(§6) • AccATP: probe substrate accumulation with ATP (cpm)
(§7) • AccAMP: probe substrate accumulation with AMP (cpm)
(§8) • Tcpm: cpm in dosing solution V: volume per well (µL)
(§9) • CCsub: probe substrate concentration (µM)
• Prot: total protein per well (mg)
• t: incubation time (min)
(§10) Relative ATP-dependent transport (%) values were calculated using the following equation:
(§11) 𝑅𝑒𝑙𝑎𝑡𝑖𝑣𝑒 𝐴𝑇𝑃 − 𝑑𝑒𝑝𝑒𝑛𝑑𝑒𝑛𝑡 𝑡𝑟𝑎𝑛𝑠𝑝𝑜𝑟𝑡 (%) = 𝐴 − 𝐵 ∙ 100
(§12) • A: amount of translocated substrate in the presence of test substance (TS) and ATP
(§13) • B: amount of translocated substrate in the presence of test substance (TS) and AMP
(§14) • C: amount of translocated substrate in the presence of solvent and ATP
(§15) • D: amount of translocated substrate in the presence of solvent and AMP
(§16) Relative inhibition (%) is calculated by setting probe substrate transport in the absence of test substance as
(§17) 𝑅𝑒𝑙𝑎𝑡𝑖𝑣𝑒 𝑖𝑛ℎ𝑖𝑏𝑖𝑡𝑖𝑜𝑛 (%) = 𝐴𝑐𝑐𝑆𝑝𝑒𝑐𝑖𝑓𝑖𝑐,𝑥 ∙100
(§18) • Accspecific,x: transporter specific accumulation for a given sample (pmol/mg/min)
(§19) • Accspecific,vehicle: transporter specific accumulation for a solvent control (pmol/mg/min)
Data are expressed as mean (n=3)
N-methyl quinidine (NMQ) measured in the vesicular transport inhibition assay.
Nominal ATP Relative ATP Relative
Compound concentration [µM] dependent transport dependent transport inhibition [%]
[pmol/mg/min] [% of control]
Data are expressed as mean (n=3) ± SD.

MRP1 = MRP1 (Homo sapiens, UniProt P33527)
Description: as §1, §2, §3, §4
𝐴𝑐𝑐𝐴𝑇𝑃 ∙ 𝑉 ∙ 𝐶𝐶 𝐴𝑐𝑐𝐴𝑀𝑃 ∙𝑉 ∙𝐶𝐶
as §5, §6, §7, §8, §9
• Prot: total protein per well (mg)
• t: incubation time (min)
as §10, §11, §12, §13, §14, §15, §16, §17, §18, §19

MRP4 = target: T1, MRP4 (Homo sapiens, UniProt O15439); assay: Vesicular transport inhibition assay (ABC), MRP4-mediated DHEAS transport, HEK293 membrane vesicles; type: in vitro ADME; details: positive control inhibitor 150.0 µM, DHEAS probe
T1 construct: host or cells: HEK293 (membrane vesicles)
T1 sequence (O15439 1-1325): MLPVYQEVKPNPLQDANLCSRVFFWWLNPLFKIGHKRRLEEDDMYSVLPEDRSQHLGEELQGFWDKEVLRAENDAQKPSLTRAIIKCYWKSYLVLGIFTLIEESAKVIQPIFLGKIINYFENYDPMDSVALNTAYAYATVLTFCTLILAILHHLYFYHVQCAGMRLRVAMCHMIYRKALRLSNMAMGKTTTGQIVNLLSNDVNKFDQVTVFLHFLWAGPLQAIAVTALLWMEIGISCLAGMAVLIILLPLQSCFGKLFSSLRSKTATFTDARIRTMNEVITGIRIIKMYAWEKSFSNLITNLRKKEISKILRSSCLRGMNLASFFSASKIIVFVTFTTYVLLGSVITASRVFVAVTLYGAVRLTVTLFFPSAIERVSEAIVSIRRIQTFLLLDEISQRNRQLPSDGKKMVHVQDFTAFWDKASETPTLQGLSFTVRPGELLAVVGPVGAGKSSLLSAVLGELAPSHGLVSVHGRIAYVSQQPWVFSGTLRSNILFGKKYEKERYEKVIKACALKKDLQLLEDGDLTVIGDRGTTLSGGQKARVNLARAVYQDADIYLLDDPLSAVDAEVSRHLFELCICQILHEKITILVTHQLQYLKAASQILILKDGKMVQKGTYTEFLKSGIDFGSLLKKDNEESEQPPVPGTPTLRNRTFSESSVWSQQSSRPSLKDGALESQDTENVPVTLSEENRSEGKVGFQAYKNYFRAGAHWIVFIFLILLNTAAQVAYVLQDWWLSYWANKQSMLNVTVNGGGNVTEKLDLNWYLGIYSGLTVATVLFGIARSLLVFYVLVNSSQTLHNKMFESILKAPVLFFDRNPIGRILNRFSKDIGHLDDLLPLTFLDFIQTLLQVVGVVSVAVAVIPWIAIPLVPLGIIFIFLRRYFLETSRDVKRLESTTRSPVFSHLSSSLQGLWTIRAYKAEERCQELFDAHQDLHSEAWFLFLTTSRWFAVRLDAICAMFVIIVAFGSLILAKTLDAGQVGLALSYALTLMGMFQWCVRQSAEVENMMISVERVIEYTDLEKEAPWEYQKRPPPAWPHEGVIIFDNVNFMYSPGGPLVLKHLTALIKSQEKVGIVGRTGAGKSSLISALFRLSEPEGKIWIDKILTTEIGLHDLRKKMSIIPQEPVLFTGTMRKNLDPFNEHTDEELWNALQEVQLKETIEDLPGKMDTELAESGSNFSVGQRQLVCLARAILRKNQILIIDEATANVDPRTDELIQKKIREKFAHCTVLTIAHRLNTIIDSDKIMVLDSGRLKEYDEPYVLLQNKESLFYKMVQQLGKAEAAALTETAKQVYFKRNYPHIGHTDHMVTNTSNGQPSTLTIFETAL

[1] = set-up: method as in PMID 37191680; details: PSMA-null mice; cited from earlier work
[2] = cited from earlier work
[3] = set-up: method as in PMID 29651569; details: within the first 24 h post injection; cited from earlier work
[4] = positive control inhibitor 200.0 µM, E217βG probe, mean (n=3) ± SD

MRP1, sequence (P33527 whole entry): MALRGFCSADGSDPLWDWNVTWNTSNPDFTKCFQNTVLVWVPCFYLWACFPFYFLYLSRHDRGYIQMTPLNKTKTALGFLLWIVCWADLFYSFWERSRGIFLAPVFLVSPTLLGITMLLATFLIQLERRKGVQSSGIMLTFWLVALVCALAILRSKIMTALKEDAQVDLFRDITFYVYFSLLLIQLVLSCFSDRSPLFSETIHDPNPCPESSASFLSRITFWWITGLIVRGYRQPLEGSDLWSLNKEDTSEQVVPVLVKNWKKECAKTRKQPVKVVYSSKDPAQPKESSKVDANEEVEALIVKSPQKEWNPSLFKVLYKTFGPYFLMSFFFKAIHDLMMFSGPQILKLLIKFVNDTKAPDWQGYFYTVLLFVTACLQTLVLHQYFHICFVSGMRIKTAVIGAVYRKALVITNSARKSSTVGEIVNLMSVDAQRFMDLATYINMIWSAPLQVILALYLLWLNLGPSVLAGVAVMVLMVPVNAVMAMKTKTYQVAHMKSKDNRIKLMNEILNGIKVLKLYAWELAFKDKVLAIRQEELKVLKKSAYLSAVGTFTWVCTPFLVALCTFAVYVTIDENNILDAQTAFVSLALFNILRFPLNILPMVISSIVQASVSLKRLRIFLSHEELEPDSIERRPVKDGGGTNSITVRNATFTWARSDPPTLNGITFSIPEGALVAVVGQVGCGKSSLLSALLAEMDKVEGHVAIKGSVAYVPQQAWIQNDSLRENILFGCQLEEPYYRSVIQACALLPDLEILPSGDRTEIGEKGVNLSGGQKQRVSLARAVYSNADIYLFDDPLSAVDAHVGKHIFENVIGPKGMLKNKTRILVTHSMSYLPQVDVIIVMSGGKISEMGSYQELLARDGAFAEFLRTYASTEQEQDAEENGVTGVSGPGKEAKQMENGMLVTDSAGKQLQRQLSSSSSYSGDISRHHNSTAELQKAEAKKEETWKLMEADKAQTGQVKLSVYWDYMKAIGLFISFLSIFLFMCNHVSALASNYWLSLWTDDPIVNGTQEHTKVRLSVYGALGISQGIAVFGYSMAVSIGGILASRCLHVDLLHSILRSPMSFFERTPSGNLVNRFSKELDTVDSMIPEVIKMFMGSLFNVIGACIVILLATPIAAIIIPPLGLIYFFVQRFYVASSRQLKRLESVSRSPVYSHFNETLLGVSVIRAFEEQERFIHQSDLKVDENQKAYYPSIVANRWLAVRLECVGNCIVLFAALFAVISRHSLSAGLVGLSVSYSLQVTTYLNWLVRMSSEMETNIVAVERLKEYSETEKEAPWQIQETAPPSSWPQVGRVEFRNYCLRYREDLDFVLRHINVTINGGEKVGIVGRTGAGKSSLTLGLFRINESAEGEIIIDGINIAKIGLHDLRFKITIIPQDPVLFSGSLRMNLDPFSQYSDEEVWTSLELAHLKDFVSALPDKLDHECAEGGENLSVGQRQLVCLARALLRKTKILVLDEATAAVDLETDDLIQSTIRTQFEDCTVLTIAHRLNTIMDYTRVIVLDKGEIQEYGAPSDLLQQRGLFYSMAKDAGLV
MDR1, sequence (P08183 whole entry): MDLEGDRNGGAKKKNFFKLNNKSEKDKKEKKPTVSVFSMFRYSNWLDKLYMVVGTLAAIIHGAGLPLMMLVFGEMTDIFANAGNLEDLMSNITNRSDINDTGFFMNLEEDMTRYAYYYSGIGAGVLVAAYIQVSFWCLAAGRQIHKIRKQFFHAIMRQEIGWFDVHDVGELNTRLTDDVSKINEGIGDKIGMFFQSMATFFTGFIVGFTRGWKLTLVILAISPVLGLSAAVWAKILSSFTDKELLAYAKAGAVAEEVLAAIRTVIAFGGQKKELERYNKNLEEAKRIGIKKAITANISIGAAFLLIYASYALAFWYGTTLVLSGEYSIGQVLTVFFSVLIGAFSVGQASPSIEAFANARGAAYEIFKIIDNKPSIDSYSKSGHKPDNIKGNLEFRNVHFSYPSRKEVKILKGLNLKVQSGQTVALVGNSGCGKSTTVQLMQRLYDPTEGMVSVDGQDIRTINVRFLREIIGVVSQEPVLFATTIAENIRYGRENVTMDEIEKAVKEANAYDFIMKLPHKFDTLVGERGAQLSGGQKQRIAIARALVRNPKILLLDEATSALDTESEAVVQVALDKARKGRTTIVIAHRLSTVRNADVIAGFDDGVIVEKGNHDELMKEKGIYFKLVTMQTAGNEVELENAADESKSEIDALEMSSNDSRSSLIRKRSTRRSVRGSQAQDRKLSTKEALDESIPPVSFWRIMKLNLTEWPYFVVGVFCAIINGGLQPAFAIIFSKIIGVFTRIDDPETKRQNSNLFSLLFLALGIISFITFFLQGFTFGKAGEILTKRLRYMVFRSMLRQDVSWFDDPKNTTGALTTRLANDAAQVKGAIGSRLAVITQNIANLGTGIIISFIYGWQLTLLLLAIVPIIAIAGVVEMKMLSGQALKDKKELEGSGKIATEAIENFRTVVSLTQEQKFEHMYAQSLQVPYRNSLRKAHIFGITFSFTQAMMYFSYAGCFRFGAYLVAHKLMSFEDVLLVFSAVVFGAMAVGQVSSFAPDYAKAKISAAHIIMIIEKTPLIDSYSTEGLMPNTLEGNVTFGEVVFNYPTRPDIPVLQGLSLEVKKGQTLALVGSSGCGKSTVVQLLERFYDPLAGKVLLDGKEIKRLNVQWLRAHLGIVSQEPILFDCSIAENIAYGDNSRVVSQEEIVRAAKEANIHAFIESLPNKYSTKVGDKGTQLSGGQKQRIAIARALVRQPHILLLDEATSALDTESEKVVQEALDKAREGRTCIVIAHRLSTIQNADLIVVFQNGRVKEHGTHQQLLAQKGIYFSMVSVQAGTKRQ

## C/C=C/C[C@@H](C)C(=O)[C@H]1C(=O)N[C@@H](C(C)C)C(=O)N(C)CC(=O)N(C)[C@@H](CC(C)C)C(=O)N[C@@H](C(C)C)C(=O)N(C)[C@@H](CC(C)C)C(=O)N[C@@H](C)C(=O)N[C@H](C)C(=O)N(C)[C@@H](CC(C)C)C(=O)N(C)[C@@H](CC(C)C)C(=O)N(C)[C@@H](C(C)C)C(=O)N1C [Valspodar, reference compound]
MDR1; human, probe N-methyl quinidine (NMQ), 1.0 µM
  inhibition at 1 min, 1 µM: 96%
MDR1; positive control inhibitor 1.00 µM, NMQ probe, mean (n=3) ± SD
  Relative ATP dependent transport: 4.28 ± 0.62 % of control

## CCc1oc2ccccc2c1C(=O)c1cc(Br)c(O)c(Br)c1 [Benzbromarone, benzbromarone, reference compound]
MRP1; human, membrane vesicles from Sf9 cells transfected with human MRP1, […], 0.2 µM
  inhibition at 3 min, 200 µM: 104%
MRP1; [4]
  ATP dependent transport: -26.33 ± 10.19 pmol/mg/min
  Relative ATP dependent transport: -3.87 ± 1.50 % of control

## CN(C)C(=O)CCSC(SCCC(=O)O)c1cccc(/C=C/c2ccc3ccc(Cl)cc3n2)c1 (stereo not drawn) [MK-571, reference compound]
MRP4; human, probe dehydroepiandrosterone sulfate (DHEAS), 0.5 µM, read-out: Relative inhibition
  inhibition at 1.5 min, 150 µM: 98%
MRP4; mean (n=3) ± SD
  ATP dependent transport: 256.00 ± 59.15 pmol/mg/min
  Relative ATP dependent transport: 2.06 ± 0.48 % of control

## O=C([O-])CN(CCN(CC(=O)[O-])Cc1cc(CCC(=O)NCCCCCC(=O)NCCCC[C@H](NC(=O)N[C@@H](CCC(=O)O)C(=O)O)C(=O)O)ccc1[O-])Cc1cc(CCC(=O)O)ccc1[O-].[68Ga+3].[OH3+] [[^68Ga]Ga-PSMA-11]
[1]
  Uptake by healthy kidneys and SGs: greatly reduced uptake

## O=C([O-])CN1CCN(CC(=O)[O-])CCN(CC(=O)NCC2CCC(C(=O)NC(Cc3ccc4ccccc4c3)C(=O)NCCCCC(NC(=O)NC(CCC(=O)O)C(=O)O)C(=O)O)CC2)CCN(CC(=O)[O-])CC1.[177Lu+3] (stereo not drawn) [[^177Lu]Lu-PSMA-617]
[2]; kidneys
  Accumulation in the kidneys: 0.5–0.6 Gy/GBq injected dose
[2]; salivary glands (SGs)
  Accumulation in the salivary glands: up to 1 Gy/GBq injected dose
[3]
  Excreted via the renal route in urine: up to 70%

Reference: article PMC11053447, “Human ABC and SLC Transporters: The Culprit Responsible for Unspecific PSMA-617 Uptake?” (Pharmaceuticals, 2024)
